In assay [1] the test system is human lung adenocarcinoma NCI-H441 cells. As to the kind of experiment: In vitro inhibitory effect on the proliferation of NCI-H441 cells (3D CellTiter Glo, 5 days). The format is cell-based. The settings on record: 120 h, 3D cell viability. As to the method: The human lung adenocarcinoma cell NCI-H441 used in the assay was purchased from ATCC. The complete culture medium required for cell culture was RPMI 1640 Medium (GIBCO Company), which was supplemented with 10% fetal bovine serum (GIBCO Company). Cells were cultured in a 37° C., 5% CO2 incubator. The reagents used in the assay included dimethyl sulfoxide (purchased from Sigma), a 3D Cell Viability assay kit (purchased from Promega), and the control substance TW-45 used in the assay was obtained homemade. The test substance was sealed and stored at 4° C.
Dimethyl sulfoxide was used as the solvent to fully dissolve the test substance and prepare a stock solution with a concentration of 1×10^−2 mol/L. The stock solution was stored at −20° C. A complete culture medium was used as the diluent, and the test substance was diluted to different concentrations in gradient for later use (the final test concentration was 10000, 3333, 1111, 370, 123, 41, 13.7, 4.5, 1.5, and 0.5 nM). Cells were cultured in a 37° C., 5% CO2 incubator for 5 days. Detection was made on the fifth day. 30 μL of reagent (Celltiter Glo Assay Kit-3D) was added to each well and the plate was shaken on a plate oscillator (protected from light) for 30 minutes. The plate was incubated at room temperature (protected from light) for 120 minutes. Chemiluminescence values were recorded with a Multiplate reader. […]
For orientation: In ATP-based viability assays light output follows the ATP content of the culture.

Assay [2] concerns the target SHP2 (Homo sapiens (Human), UniProt Q06124). As to the kind of experiment: Assay for the inhibitory effect on the SHP2 enzyme (DiFMUP substrate, fluorescence). Type of assay: biochemical. The settings on record: SHP2 activated with SHP-2 activated peptide; DiFMUP 10 μM; read-out: Enzymatic Effect (IC50 on SHP2). As to the method: 1× Assay buffer was prepared. A compound to be tested was diluted with DMSO solvent to a stock concentration of 10 mM. The compound to be tested was first diluted to an intermediate concentration of 1000 μM and then further diluted in a 3-fold gradient using DMSO. Therefore, the intermediate gradient dilution concentration of the compound to be tested was: 1000 μM, 3-fold dilution, 11 gradients. 100 nL of each concentration of the compound in the 384-well LDV echo plate was transferred to a new 384-well ELISA plate (assay plate) (corning, Cat #4514) by the Echo550 instrument. The final concentration of the compound to be tested was 10 μM, 3-fold dilution, 11 gradients in duplicate after 10 μL of the reaction reagent was added. The final DMSO concentration was 1%. For both negative and positive control wells, 100 nL DMSO would be transferred.
A mixed liquor of 2× working SHP2 reagent (0.4 nM) and 0.5 μM SHP-2 activated peptide (BPS bioscience #79319-2) was prepared with 1× enzyme buffer. After the above-mixed liquor was incubated at 25° C. for 60 minutes, 5 μL of activated SHP2 kinase solution was transferred with a pipettor to the compound wells and the Max control wells (Corning, #4514) of the plate. Then 5 μL of 1× kinase buffer was transferred to the Min control wells. The plate was centrifuged at 1000 rpm for 30 seconds, sealed, and incubated in a 25° C. constant-temperature incubator for 30 minutes. A substrate solution of DiFMUP (#D6567, Invitrogen™) was prepared with 1× kinase buffer, and its concentration should be 2 times as the final concentration of the assay (DiFMUP final concentration: 10 μM). 5 μL of the prepared substrate solution was transferred with an electric pipettor into each well of the ELISA plate to start the reaction. The plate was centrifuged at 1000 rpm for 30 seconds, sealed, and incubated in a 25° C. constant-temperature incubator for 60 minutes. Read the plate at the excitation/emission wavelength of 358/455 nm after the ELISA plate was placed on the Spark machine.
The RLU values were collected from Spark and the inhibition rate was calculated with the RLU values. Inhibition rate=(maximum value-sample RLU)/(maximum value-minimum value)*100. “Minimum value” was referred to the RLU of the enzyme-free control, and “maximum value” was referred to the RLU of the DMSO control. The data were fit by using the XLFit Excel module (version 5.4.0.8) to obtain IC50 values, and the results are shown in Table 1.

Broadly, the IC50 is the midpoint of a concentration-inhibition curve.

A value given as a limit tells only on which side of the number the result lay.

Sequence of SHP2 (Q06124 whole entry): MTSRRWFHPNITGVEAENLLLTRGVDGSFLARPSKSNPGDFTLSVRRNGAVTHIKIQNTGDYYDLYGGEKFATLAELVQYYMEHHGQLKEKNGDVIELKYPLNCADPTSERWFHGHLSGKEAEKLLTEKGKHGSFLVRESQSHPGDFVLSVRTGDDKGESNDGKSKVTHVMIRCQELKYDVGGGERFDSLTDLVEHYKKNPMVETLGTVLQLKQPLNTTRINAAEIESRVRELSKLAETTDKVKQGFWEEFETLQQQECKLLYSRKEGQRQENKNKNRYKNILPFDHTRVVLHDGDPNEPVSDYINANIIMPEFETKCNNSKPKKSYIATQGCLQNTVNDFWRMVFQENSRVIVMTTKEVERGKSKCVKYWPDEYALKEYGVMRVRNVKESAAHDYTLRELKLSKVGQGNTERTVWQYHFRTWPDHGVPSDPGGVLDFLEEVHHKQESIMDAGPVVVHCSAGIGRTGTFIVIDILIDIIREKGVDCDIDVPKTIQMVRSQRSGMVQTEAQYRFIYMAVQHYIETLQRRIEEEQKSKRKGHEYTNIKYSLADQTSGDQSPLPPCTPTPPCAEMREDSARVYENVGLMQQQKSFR

Consider `CC(=O)c1nc(Sc2ccnc(N)c2Cl)c(N)nc1N1CCC2(CC1)Oc1ccccc1[C@H]2N` [Compound 62], for which the concentration for half-maximal inhibition (IC50) in assay [1] was 20 to 50 nM; in assay [2], not above 20 nM.
